The record followed here is US9635855B2, “Polyelectrolyte complexes for biocide enhancement” (priority 2012, dated 2017).

In the test the test system is Botrytis cinerea. The experiment in a line: Botrytis cinerea fruit rot on wounded apple, post-harvest spray (Example 2). The test is classed as in vivo.

In the case of `C[C@@H]1C/C=C/C=C/C=C/C=C/[C@H](O[C@@H]2O[C@H](C)[C@@H](O)[C@H](N)[C@@H]2O)C[C@@H]2O[C@](O)(C[C@@H](O)C[C@H]3O[C@@H]3/C=C/C(=O)O1)C[C@H](O)[C@H]2C(=O)O` [natamycin], the “Rot on apples, comparison in words” value (five and six days after inoculation) is on record as “clearly lower”. Moreover, the “Botrytis fruit rot symptoms (in words)” value (two days after inoculation) is “did not show any symptoms”.
